According to patent publication US12187686B2, “BRD4-JAK2 inhibitors” (H. LEE MOFFITT CANCER CENTER AND RESEARCH INSTITUTE, INC., priority 2018, dated 2025):
pEC50, pIC50: −log10 of the molar value. Where two headings read alike, the source gives them in different places.

Tests used:
c-Myc = conditions: MM.1S cells; background, literature; cited from earlier work
JAK2 = JAK2 (Homo sapiens, UniProt O60674); test: JAK2 inhibition (IC50); assay type: biochemical
UKE1 cells = test: Growth inhibition of UKE1 cells; assay type: cell-based
MM1.S cells = test: Antiproliferative activity in MM1.S cells (sensitive for BRD4 inhibition); assay type: cell-based; conditions: Homo sapiens; for GI50 / pIC50: MM1.S; for GI50: Table 3, read-out: GI50 (MM1S); for pEC50: MM1.S cells (sensitive for BRD4 inhibition)
Procedure: Cellular activity of promising compounds is assessed using MM.1S and MV4-11 AML cells using c-Myc levels as biomarker (6-12 hr treatment) and antiproliferative activity (48-72 hr treatment) as described (Ciceri et al., Dual kinase-bromodomain inhibitors for rationally designed polypharmacology. Nat Chem Biol 2014).

BRD4 [1] = target: T1, BRD4 (Homo sapiens, UniProt O60885); test: Differential Scanning Fluorimetry (DSF), increased stability of BRD4 upon ligand binding; conditions: for ΔTm at 4 µM: 100 μM protein, 4 μM compound and 2% DMSO; for BRD4 DSF (ΔTm): Table 3
Procedure: DSF=Differential Scanning Fluorimetry; provides a measure of the increased stability of BRD4 upon ligand binding The DSF experiment was run at 100 μM protein, 4 μM compound and 2% DMSO.

BRD4 [2] = target: T1, BRD4; test: BRD4 inhibition (IC50); assay type: binding; set-up: BRD4-1
Mouse microsome = assay type: in vitro ADME; conditions: Table 1
MV4-11 AML cells = conditions: background, literature; read-out: IC50, proliferation of MV4-11 AML cells; cited from earlier work
[3] = Table 1, read-out: GI50 (UKE1 cells)
[4] = Table 1, estimated, read-out: Estimated BRD4-1 IC50 (BRD4)
[5] = Table 2, read-out: GI50 (UKE1 cells)

Chain of JAK2 (O60674 whole entry): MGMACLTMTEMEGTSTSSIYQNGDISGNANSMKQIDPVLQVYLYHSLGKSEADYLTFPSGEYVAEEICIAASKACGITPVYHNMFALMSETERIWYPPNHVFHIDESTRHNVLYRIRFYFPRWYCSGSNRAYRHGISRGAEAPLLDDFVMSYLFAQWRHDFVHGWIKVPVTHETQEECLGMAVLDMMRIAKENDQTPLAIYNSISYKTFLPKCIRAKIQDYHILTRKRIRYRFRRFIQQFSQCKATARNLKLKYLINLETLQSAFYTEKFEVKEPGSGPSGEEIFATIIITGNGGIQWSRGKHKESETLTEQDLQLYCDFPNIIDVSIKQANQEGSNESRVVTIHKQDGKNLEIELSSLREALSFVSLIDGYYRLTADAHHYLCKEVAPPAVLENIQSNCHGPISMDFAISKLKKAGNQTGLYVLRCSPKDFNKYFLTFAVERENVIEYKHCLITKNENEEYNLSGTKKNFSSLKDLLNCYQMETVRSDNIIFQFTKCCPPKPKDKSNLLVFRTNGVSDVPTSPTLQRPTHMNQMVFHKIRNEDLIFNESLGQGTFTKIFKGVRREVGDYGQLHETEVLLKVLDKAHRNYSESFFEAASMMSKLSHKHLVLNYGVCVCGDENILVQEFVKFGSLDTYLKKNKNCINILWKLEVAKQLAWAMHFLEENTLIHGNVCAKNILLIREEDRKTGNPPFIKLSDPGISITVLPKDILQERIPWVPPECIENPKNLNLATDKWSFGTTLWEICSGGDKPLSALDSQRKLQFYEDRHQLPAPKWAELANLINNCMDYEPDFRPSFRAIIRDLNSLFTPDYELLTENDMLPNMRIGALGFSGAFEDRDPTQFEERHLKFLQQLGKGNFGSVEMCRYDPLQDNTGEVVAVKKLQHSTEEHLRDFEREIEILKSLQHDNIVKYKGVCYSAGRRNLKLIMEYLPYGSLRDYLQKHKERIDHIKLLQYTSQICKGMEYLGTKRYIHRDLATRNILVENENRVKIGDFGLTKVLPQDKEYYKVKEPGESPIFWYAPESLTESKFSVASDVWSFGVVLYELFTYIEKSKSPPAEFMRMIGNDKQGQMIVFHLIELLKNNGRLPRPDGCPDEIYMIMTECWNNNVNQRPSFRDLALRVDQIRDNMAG

## Cc1cnc(Nc2ccc(N3CCN(C)CC3)cc2)nc1Nc1cccc(S(=O)(=O)NC(C)(C)C)c1 [TG101209]
c-Myc
  downregulation of c-Myc: strong downregulation

## Cc1cnc(Nc2ccc(N3CCN(C)CC3)c(F)c2)nc1Nc1cccc(CS(=O)(=O)C(C)(C)C)c1 [SR3-159, N^4-(3-((tert-Butylsulfonyl)methyl)phenyl)-N^2-(3-fluoro-4-(4-methylpiperazin-1-yl)phenyl)-5-methylpyrimidine-2,4-diamine]
JAK2; Table 1, read-out: IC50 (JAK2)
  pIC50: 8.05
JAK2; Table 3, read-out: JAK2 (IC50)
  pIC50: 8.10
UKE1 cells; [3]
  GI50: 440 nM
UKE1 cells; Table 3, read-out: GI50 (UKE1)
  GI50: 440 nM
MM1.S cells
  GI50: 710 nM
MM1.S cells; Table 1
  pEC50: 6.15
BRD4 [1]; Table 1
  ΔTm at 4 µM: 8.4 °C
BRD4 [1]
  BRD4 DSF (ΔTm): 8.4 °C
BRD4 [2]; [4]
  pIC50: 5.25
BRD4 [2]; Table 3, read-out: BRD4 (IC50)
  pIC50: 5.25

## Cc1cnc(Nc2ccc(N3CCN(C)CC3)c(F)c2)cc1Nc1ccc(Cl)c(NS(=O)(=O)C(C)(C)C)c1
UKE1 cells; [5]
  GI50: 4500 nM
MM1.S cells; Table 2
  pEC50: 5.51
BRD4 [1]; Table 2
  ΔTm at 4 µM: 6.9 °C

## CC[C@@H]1C(=O)N(C)c2cnc(Nc3ccc(C(=O)NC4CCN(C)CC4)cc3OC)nc2N1C1CCCC1 [BI2536]
c-Myc
  downregulation of c-Myc: strong downregulation

## Cc1cnc(Nc2cc(F)c(C3CCN(C)CC3)c(F)c2)nc1Nc1ccc2c(c1)C(S(=O)(=O)C(C)(C)C)CC2 (stereo not shown) [SR5-157, N^4-(3-(tert-Butylsulfonyl)-2,3-dihydro-1H-inden-5-yl)-N^2-(3,5-difluoro-4-(1-methylpiperidin-4-yl)phenyl)-5-methylpyrimidine-2,4-diamine]
UKE1 cells; Table 3, read-out: GI50 (UKE1)
  GI50: 1500 nM
MM1.S cells
  GI50: 700 nM

## Cc1cnc(Nc2ccc(C3CCN(C)CC3)c(F)c2)nc1Nc1cccc(CS(=O)(=O)C(C)(C)C)c1 [SR3-167, N^4-(3-((tert-Butylsulfonyl)methyl)phenyl)-N^2-(3-fluoro-4-(1-methylpiperidin-4-yl)phenyl)-5-methylpyrimidine-2,4-diamine]
JAK2; Table 1, unit given as nm, read-out: IC50 (JAK2)
  pIC50: 9.06
JAK2; Table 3, read-out: JAK2 (IC50)
  pIC50: 9.00
UKE1 cells; [3]
  GI50: 210 nM
UKE1 cells; Table 3, read-out: GI50 (UKE1)
  GI50: 210 nM
MM1.S cells; Table 1
  pIC50: 6.85
MM1.S cells
  GI50: 140 nM
Mouse microsome
  Mouse microsome: 28%
BRD4 [1]; Table 1
  ΔTm at 4 µM: 9.2 °C
BRD4 [1]
  BRD4 DSF (ΔTm): 9.2 °C
BRD4 [2]; [4]
  pIC50: 6.15
BRD4 [2]; Table 3, read-out: BRD4 (IC50)
  pIC50: 6.15

## Cc1cnc(Nc2cc(F)c(N3CCN(C)CC3)c(F)c2)cc1Nc1ccc(Cl)c(NS(=O)(=O)C(C)(C)C)c1
UKE1 cells; [5]
  GI50: 5700 nM
MM1.S cells; Table 2
  pEC50: 5.55
BRD4 [1]; Table 2
  ΔTm at 4 µM: 6.6 °C

## Cc1cnc(Nc2ccc(C3CCN(C)CC3)c(F)c2)nc1Nc1ccc2c(c1)C(S(=O)(=O)C(C)(C)C)CC2 (stereo not shown) [SR5-156, N^4-(3-(tert-Butylsulfonyl)-2,3-dihydro-1H-inden-5-yl)-N^2-(3-fluoro-4-(1-methylpiperidin-4-yl)phenyl)-5-methylpyrimidine-2,4-diamine]
UKE1 cells; Table 3, read-out: GI50 (UKE1)
  GI50: 1440 nM
MM1.S cells
  GI50: 850 nM
BRD4 [1]
  BRD4 DSF (ΔTm): 8.7 °C

## Cc1cnc(Nc2ccc(C(=O)NC3CCN(C)CC3)c(F)c2)nc1Nc1cccc(CS(=O)(=O)C(C)(C)C)c1 [SR3-162, 4-((4-((3-((tert-Butylsulfonyl)methyl)phenyl)amino)-5-methylpyrimidin-2-yl)amino)-2-fluoro-N-(1-methylpiperidin-4-yl)benzamide]
JAK2; Table 3, read-out: JAK2 (IC50)
  pIC50: 8.66
MM1.S cells; Table 1
  pIC50: 6.89
MM1.S cells
  GI50: 130 nM
BRD4 [1]; Table 1
  ΔTm at 4 µM: 6.9 °C
BRD4 [1]
  BRD4 DSF (ΔTm): 6.9 °C

## Cc1cnc(Nc2ccc(C3CCN(C)CC3)c(F)c2)cc1Nc1cccc(CS(=O)(=O)C(C)(C)C)c1 [SY3-036, N^4-(3-((tert-Butylsulfonyl)methyl)phenyl)-N^2-(3-fluoro-4-(1-methylpiperidin-4-yl)phenyl)-5-methylpyridine-2,4-diamine]
BRD4 [1]
  BRD4 DSF (ΔTm): 2.9 °C

## Cc1cnc(Nc2cc(F)c(C3CCN(C)CC3)cn2)nc1Nc1ccc2c(c1)C(S(=O)(=O)C(C)(C)C)CC2 (stereo not shown) [SR5-158, N^4-(3-(tert-Butylsulfonyl)-2,3-dihydro-1H-inden-5-yl)-N^2-(4-fluoro-5-(1-methylpiperidin-4-yl)pyridin-2-yl)-5-methylpyrimidine-2,4-diamine]
UKE1 cells; Table 3, read-out: GI50 (UKE1)
  GI50: 3640 nM
MM1.S cells
  GI50: 2300 nM
BRD4 [1]
  BRD4 DSF (ΔTm): 7.0 °C

## Cc1cnc(Nc2ccc(C3CCN(C)CC3)cc2)cc1Nc1cccc(CS(=O)(=O)C(C)(C)C)c1 [SY3-032, N^4-(3-((tert-Butylsulfonyl)methyl)phenyl)-5-methyl-N^2-(4-(1-methylpiperidin-4-yl)phenyl)pyridine-2,4-diamine]
BRD4 [1]
  BRD4 DSF (ΔTm): 2.5 °C

## Cc1cnc(Nc2ccc(OCCN3CCCC3)cc2)nc1Nc1cccc(S(=O)(=O)NC(C)(C)C)c1 [TG101348]
c-Myc
  downregulation of c-Myc: strong downregulation
MV4-11 AML cells
  pIC50: 7.10

## Cc1cnc(Nc2ccc(C3CCN(C)CC3)c(F)c2)nc1Nc1ccc(Cl)c(CS(=O)(=O)C(C)(C)C)c1 [SR3-169, N^4-(3-((tert-Butylsulfonyl)methyl)-4-chlorophenyl)-N^2-(3-fluoro-4-(1-methylpiperidin-4-yl)phenyl)-5-methylpyrimidine-2,4-diamine]
JAK2; Table 3, read-out: JAK2 (IC50)
  pIC50: 8.38
UKE1 cells; [3]
  GI50: 400 nM
UKE1 cells; Table 3, read-out: GI50 (UKE1)
  GI50: 400 nM
MM1.S cells; Table 1
  pIC50: 6.49
MM1.S cells
  GI50: 320 nM
Mouse microsome
  Mouse microsome: 22%
BRD4 [1]; Table 1
  ΔTm at 4 µM: 9.8 °C
BRD4 [1]
  BRD4 DSF (ΔTm): 9.8 °C
BRD4 [2]; Table 3, read-out: BRD4 (IC50)
  pIC50: 6.15
